In publication PMC4594923, “Food Polyphenols Fail to Cause a Biologically Relevant Reduction of COX-2 Activity” (PLoS ONE, 2015):
Marks after values point to notes of the source that are not given here.

How the values were obtained:
[1] = system: arachidonic acid (AA) cascade; assay: plasma oxylipin/PG levels in LPS induced sepsis in mice; format: in vivo, C57BL/6N mice;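 note: male C57BL/6N mice given LPS, plasma oxylipins quantified by LC-MS after solid-phase extraction, pretreatment or vehicle given intraperitoneally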
COX–2 = conditions: read-out: IC50, RAW 264.7 cells; cited from earlier work
[2] = system: arachidonic acid (AA) cascade; assay: kidney tissue oxylipin/PG levels in LPS induced sepsis in mice; conditions: kidney tissue 24 h after LPS treatment, LPS +, mean;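 note: male C57BL/6N mice challenged with LPS, kidney taken 24 h later, oxylipins quantified by LC-MS after solid-phase extraction of tissue homogenate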
[3] = mice, compound i. p. 100 mg/kg bw 2 h before LPS, 24 h after LPS, vs. LPS group
[4] = plasma 24 h after LPS treatment, LPS +, mean

In the case of `O=c1cc(-c2ccc(O)cc2)oc2cc(O)cc(O)c12` [Apigenin, apigenin], the “plasma epoxy- and dihydroxy-fatty acid (FA) metabolites of the CYP pathway” value [1, 3] is reported as “reduced”, the “sum of DiHETrEs in plasma” value [1, 3] is reported as “decrease” and the “sum of linoleic acid (LA) derived epoxy-metabolites in plasma” value [1, 3] is reported as “decrease”. The “1a,1b-dihomo-PGF2α concentration in plasma” value [1, 4] was […], the “4,5-DiHDPE concentration in plasma” value [1, 4] was […] and the “4-HDHA concentration in plasma” value [1, 4] was […]. For the same compound, the “5(6)-EpETrE concentration in plasma” value [1, 4] was […], the “5,6-DiHETrE concentration in plasma” value [1, 4] was […] and the “5-HEPE concentration in plasma” value [1, 4] was […]. For the same compound, the “5-HETE concentration in plasma” value [1, 4] was […], the “5-iPF2α concentration in plasma” value [1, 4] was […] and the “5-oxo-ETE concentration in plasma” value [1, 4] was […]. The “6-keto-PGF1α concentration in plasma” value [1, 4] was […], the “7,8-DiHDPE concentration in plasma” value [1, 4] was […] and the “7-HDHA concentration in plasma” value [1, 4] was […]. The “8(9)-EpETrE concentration in plasma” value [1, 4] was […], the “8,9-DiHETrE concentration in plasma” value [1, 4] was […] and the “8-HDHA concentration in plasma” value [1, 4] was […]. The “8-HETE concentration in plasma” value [1, 4] was […], the “8-iPF2a concentration in plasma” value [1, 4] was […] and the “9(10)-EpODE concentration in plasma” value [1, 4] was […]. The “9(10)-EpOME concentration in plasma” value [1, 4] was […], the “9(10)-Epoxystearic acid concentration in plasma” value [1, 4] was […] and the “9,10,13-TriHOME concentration in plasma” value [1, 4] was […]. The “9,10-DiHODE concentration in plasma” value [1, 4] was […], the “9,10-DiHOME concentration in plasma” value [1, 4] was […] and the “9,10-Dihydroxystearic acid concentration in plasma” value [1, 4] was […]. For the same compound, the “9,12,13-TriHOME concentration in plasma” value [1, 4] was […], the “9-HODE concentration in plasma” value [1, 4] was […] and the “9-HOTrE concentration in plasma” value [1, 4] was […]. The “9-oxo-ODE concentration in plasma” value [1, 4] was […], the “10(11)-EpDPE concentration in plasma” value [1, 4] was […] and the “10,11-DiHDPE concentration in plasma” value [1, 4] was […]. For the same compound, the “10-HDHA concentration in plasma” value [1, 4] was […], the “11(12)-EpETrE concentration in plasma” value [1, 4] was […] and the “11,12-DiHETE concentration in plasma” value [1, 4] was […]. For the same compound, the “11,12-DiHETrE concentration in plasma” value [1, 4] was […], the “11-HDHA concentration in plasma” value [1, 4] was […] and the “11-HETE concentration in plasma” value [1, 4] was […]. For the same compound, the “12(13)-EpODE concentration in plasma” value [1, 4] was […], the “12(13)-EpOME concentration in plasma” value [1, 4] was […] and the “12,13-DiHODE concentration in plasma” value [1, 4] was […]. The “12,13-DiHOME concentration in plasma” value [1, 4] was […], the “12-HEPE concentration in plasma” value [1, 4] was […] and the “12-HETE concentration in plasma” value [1, 4] was […]. The “13(14)-EpDPE concentration in plasma” value [1, 4] was […], the “13,14-DiHDPE concentration in plasma” value [1, 4] was […] and the “13,14-dihydro-15-keto-PGE1 concentration in plasma” value [1, 4] was […]. The “13,14dihydro-15-keto-PGF2α concentration in plasma” value [1, 4] was […], the “13-HDHA concentration in plasma” value [1, 4] was […] and the “13-HODE concentration in plasma” value [1, 4] was […]. For the same compound, the “13-HOTrE concentration in plasma” value [1, 4] was […], the “13-oxo-ODE concentration in plasma” value [1, 4] was […] and the “14(15)-EpETE concentration in plasma” value [1, 4] was […]. For the same compound, the “14(15)-EpETrE concentration in plasma” value [1, 4] was […], the “14,15-DiHETE concentration in plasma” value [1, 4] was […] and the “14,15-DiHETrE concentration in plasma” value [1, 4] was […]. The “14-HDHA concentration in plasma” value [1, 4] was […], the “15(16)-EpODE concentration in plasma” value [1, 4] was […] and the “15(S)-HETrE concentration in plasma” value [1, 4] was […]. For the same compound, the “15,16-DiHODE concentration in plasma” value [1, 4] was […], the “15-HETE concentration in plasma” value [1, 4] was […] and the “15-oxo-ETE concentration in plasma” value [1, 4] was […]. The “16(17)-EpDPE concentration in plasma” value [1, 4] was […], the “16,17-DiHDPE concentration in plasma” value [1, 4] was […] and the “16-HDHA concentration in plasma” value [1, 4] was […]. For the same compound, the “17(18)-EpETE concentration in plasma” value [1, 4] was […], the “17,18-DiHETE concentration in plasma” value [1, 4] was […] and the “17-HDHA concentration in plasma” value [1, 4] was […]. The “18-HEPE concentration in plasma” value [1, 4] was […], the “19(20)-EpDPE concentration in plasma” value [1, 4] was […] and the “19,20-DiHDPE concentration in plasma” value [1, 4] was […]. For the same compound, the “20-HDHA concentration in plasma” value [1, 4] was […], the “20-HEPE concentration in plasma” value [1, 4] was […] and the “20-HETE concentration in plasma” value [1, 4] was […]. For the same compound, the “EKODE concentration in plasma” value [1, 4] was […], the “PGD2 concentration in plasma” value [1, 4] was […] and the “PGE2 concentration in plasma” value [1, 4] was […]. The “PGF1α concentration in plasma” value [1, 4] was […], the “PGF2α concentration in plasma” value [1, 4] was […] and the “TXB2 concentration in plasma” value [1, 4] was […]. The IC50 (COX–2) was […], the “1a,1b-dihomo-PGF2α” value [2] was 1.3 nM and the “4,5-DiHDPE” value [2] was 15 nM. For the same compound, the 4-HDHA [2] was 19 nM, the “5(6)-EpETrE” value [2] was 130^* nM and the “5,6-DiHETrE” value [2] was 1.6^* nM. It also gave a 5-HEPE [2] of 1.0 nM, a 5-HETE [2] of 12 nM and a 5-oxo-ETE [2] of 28 nM. For the same compound, the 6-keto-PGF1α [2] was 55 nM, the “7,8-DiHDPE” value [2] was 1.6 nM and the 7-HDHA [2] was 3.5 nM. The “8(9)-EpETrE” value [2] was 32^† nM, the “8,9-DiHETrE” value [2] was 1.6 nM and the 8-HDHA [2] was 20^† nM. For the same compound, the 8-HETE [2] was 3.4 nM, the 8-iPF2a [2] was 1.8 nM and the “9(10)-EpODE” value [2] was 13 nM. The “9(10)-EpOME” value [2] was 150 nM, the “9(10)-Epoxystearic acid” value [2] was 77^* nM and the “9,10,13-TriHOME” value [2] was 4.8 nM. For the same compound, the “9,10-DiHODE” value [2] was 1.1 nM, the “9,10-DiHOME” value [2] was 15^† nM and the “9,10-Dihydroxystearic acid” value [2] was 57 nM. For the same compound, the “9,12,13-TriHOME” value [2] was 27 nM, the 9-HETE [2] was 3.5 nM and the 9-HODE [2] was 150 nM. For the same compound, the 9-HOTrE [2] was 3.2 nM, the 9-oxo-ODE [2] was 46 nM and the “10(11)-EpDPE” value [2] was 82^‡ nM. For the same compound, the “10,11-DiHDPE” value [2] was 1.9 nM, the 10-HDHA [2] was 3.6 nM and the “11(12)-EpETE” value [2] was 4.4 nM. The “11(12)-EpETrE” value [2] was 80^† nM, the “11,12-DiHETrE” value [2] was 2.1 nM and the 11-HDHA [2] was 5.7 nM. For the same compound, the 11-HETE [2] was 16 nM, the “12(13)-EpODE” value [2] was 6.0 nM and the “12(13)-EpOME” value [2] was 110 nM. For the same compound, the “12,13-DiHOME” value [2] was 32^* nM, the 12-HEPE [2] was 1.1 nM and the 12-HETE [2] was 10 nM. The “13(14)-EpDPE” value [2] was 65^† nM, the “13,14-DiHDPE” value [2] was 3.0 nM and the “13,14-dihydro-15-keto-PGF2α” value [2] was 2.7 nM. For the same compound, the 13-HDHA [2] was 6.9 nM, the 13-HODE [2] was 120 nM and the 13-HOTrE [2] was 3.3 nM. The 13-oxo-ODE [2] was 8.5 nM, the “14(15)-EpETE” value [2] was 5.4^‡ nM and the “14(15)-EpETrE” value [2] was 60^† nM. The “14,15-DiHETE” value [2] was 0.7 nM, the “14,15-DiHETrE” value [2] was 5.9 nM and the 14-HDHA [2] was 8.6 nM. The “15(16)-EpODE” value [2] was 65 nM, the “15(S)-HETrE” value [2] was 4.6 nM and the “15,16-DiHODE” value [2] was 13 nM. For the same compound, the 15-HETE [2] was 22 nM, the 15-oxo-ETE [2] was 8.2 nM and the “16(17)-EpDPE” value [2] was 61^‡ nM. For the same compound, the “16,17-DiHDPE” value [2] was 8.2 nM, the 16-HDHA [2] was 6.3 nM and the “17(18)-EpETE” value [2] was 6.2^‡ nM. For the same compound, the “17,18-DiHETE” value [2] was 2.7 nM, the 17-HDHA [2] was 17 nM and the 18-HEPE [2] was 1.5 nM. The “19(20)-EpDPE” value [2] was 92^‡ nM, the “19,20-DiHDPE” value [2] was 59 nM and the 20-HDHA [2] was 18 nM. The 20-HEPE [2] was 5.2 nM, the EKODE [2] was 40 nM and the PGD2 [2] was 13 nM. For the same compound, the PGE1 [2] was 4.7 nM, the PGE2 [2] was 110 nM and the PGF1α [2] was 2.8 nM. For the same compound, the PGF2α [2] was 33 nM, the TXB2 [2] was 2.0 nM and the “5,6-DiHETE” value ([2]; < = below LOQ) was < 0.25 nM. The 5-iPF2α ([2]; < = below LOQ) was < 1.0 nM, the “8(9)-EpETE” value ([2]; < = below LOQ) was 2.9^† nM and the “12,13-DiHODE” value ([2]; < = below LOQ) was < 2.0 nM. For the same compound, the “13,14-dihydro-15-keto-PGE1” value ([2]; < = below LOQ) was 0.41 nM, the 20-HETE ([2]; < = below LOQ) was < 2.7 nM and the PGD1 ([2]; < = below LOQ) was < 0.50 nM. For the same compound, the PGF2α ([2]; second listing of PGF2α (r9)) was 33 nM.
